Data set [1] in a line: refractive index (Na D-line) (dimensionless). The settings on record: 293.15 K; 101.33 kPa; Liquid; Standard Abbe refractometry.
For data set [2] the following is noted: Liquid; Ebulliometric method (Recirculating still).

Each structure is given as a SMILES string. ± gives the expanded uncertainty stated by the source.

In general, refractive index refers to a measure of how strongly the sample bends light. For `CCO` [ethanol], the refractive index in data set [1] is given as 1.3608 ± 0.0009. Moreover, in data set [2], the Normal boiling temperature was 78.40 ± 0.2 °C.
On the same counts, the results for `CCOC(=O)CC` [ethyl propanoate] are 1.3839 ± 0.0005 and 99.10 ± 0.2 °C.
On the same counts, the results for `CCC(=O)O` [propanoic acid] are 1.3872 ± 0.0008 and 141.20 ± 0.2 °C.
The corresponding values for `O` [water] are 1.333 ± 0.0005 and 100.00 ± 0.2 °C.

The values are drawn from the NIST ThermoML archive (doi:10.1016/j.jct.2018.12.026).
